PMC6494935, “Glesatinib, a c-MET/SMO Dual Inhibitor, Antagonizes P-glycoprotein Mediated Multidrug Resistance in Cancer Cells” (Frontiers in Oncology, 2019)

Key:
[1] = target: T1, P-glycoprotein (P-gp, ABCB1) (Homo sapiens, UniProt P08183); assay: vanadate-sensitive ATPase stimulation in membrane vesicles; also inhibits [3H]-paclitaxel efflux in KB-C2 cells; type: biochemical; parameters: ABCB1 in membrane vesicles of High Five insect cells
[2] = target: T1, P-glycoprotein (P-gp, ABCB1)

T1 sequence (P08183 whole entry): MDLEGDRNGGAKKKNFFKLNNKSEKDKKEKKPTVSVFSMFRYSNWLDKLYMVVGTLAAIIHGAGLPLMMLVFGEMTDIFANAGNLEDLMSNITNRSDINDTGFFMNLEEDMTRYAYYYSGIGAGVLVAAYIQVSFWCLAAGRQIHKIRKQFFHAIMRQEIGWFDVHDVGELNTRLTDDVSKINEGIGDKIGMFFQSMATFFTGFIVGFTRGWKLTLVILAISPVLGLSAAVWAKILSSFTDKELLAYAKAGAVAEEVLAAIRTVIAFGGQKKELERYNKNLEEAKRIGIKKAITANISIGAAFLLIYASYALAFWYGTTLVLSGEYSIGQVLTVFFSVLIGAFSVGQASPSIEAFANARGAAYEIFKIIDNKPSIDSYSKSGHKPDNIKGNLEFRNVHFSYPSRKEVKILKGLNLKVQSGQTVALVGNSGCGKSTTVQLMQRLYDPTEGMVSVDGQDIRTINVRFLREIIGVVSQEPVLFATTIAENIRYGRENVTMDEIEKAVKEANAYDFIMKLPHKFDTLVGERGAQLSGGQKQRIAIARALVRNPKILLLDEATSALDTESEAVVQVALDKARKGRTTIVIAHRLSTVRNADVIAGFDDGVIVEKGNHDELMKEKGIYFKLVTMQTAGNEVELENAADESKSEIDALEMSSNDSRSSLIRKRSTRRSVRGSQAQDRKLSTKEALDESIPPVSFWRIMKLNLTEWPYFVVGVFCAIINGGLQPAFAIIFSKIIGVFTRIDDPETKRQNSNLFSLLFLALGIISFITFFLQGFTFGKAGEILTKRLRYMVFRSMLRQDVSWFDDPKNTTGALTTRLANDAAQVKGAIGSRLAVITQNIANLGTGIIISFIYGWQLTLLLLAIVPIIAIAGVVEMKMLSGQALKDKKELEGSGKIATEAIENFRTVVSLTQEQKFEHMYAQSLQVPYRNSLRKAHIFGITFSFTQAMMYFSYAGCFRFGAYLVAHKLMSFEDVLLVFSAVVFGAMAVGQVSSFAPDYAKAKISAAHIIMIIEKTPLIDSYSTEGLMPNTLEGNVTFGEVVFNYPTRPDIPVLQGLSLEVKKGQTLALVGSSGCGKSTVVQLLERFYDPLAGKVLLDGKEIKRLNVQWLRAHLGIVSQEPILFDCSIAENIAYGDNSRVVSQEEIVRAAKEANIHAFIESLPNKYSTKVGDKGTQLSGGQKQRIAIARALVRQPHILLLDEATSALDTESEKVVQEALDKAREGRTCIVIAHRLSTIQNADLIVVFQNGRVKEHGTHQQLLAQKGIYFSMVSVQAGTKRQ

| Structure (SMILES) | EC50 [1] [µM] | [3H]-paclitaxel accumulation and efflux in KB-C2 vs parental KB-3-1 cells [2] |
| --- | --- | --- |
| COCCNCc1ccc(-c2cc3nccc(Oc4ccc(NC(=S)NC(=O)Cc5ccc(F)cc5)cc4F)c3s2)nc1 [glesatinib] | 3.2 |  |
| CC(=O)O[C@H]1C(=O)[C@@]2(C)[C@H]([C@H](OC(=O)c3ccccc3)[C@]3(O)C[C@H](OC(=O)[C@H](O)[C@@H](NC(=O)c4ccccc4)c4ccccc4)C(C)=C1C3(C)C)[C@]1(OC(C)=O)CO[C@@H]1C[C@@H]2O [paclitaxel] |  | While in P-gp overexpressing KB-C-2 cells, [^3H]-paclitaxel accumulation decreased significantly as shown in Figures 4A,C. |
